Measured values taken from US20240360153A1 (Regeneron Pharmaceuticals, Inc., priority 2023, published 2024).

Experiments:
[1] = In vitro microsomal metabolic stability, CD-1 mouse liver microsomes; format: in vitro ADME; conditions: for half-life at 1 µM: CD-1, pH 7.2, 0.5 mg/ml protein, NADPH; for half-life at 1 µM / Remaining (T = 60 min) / Remaining (T = NCF60 min): Mouse liver microsomes; for Remaining (T = 60 min): with NADPH; for Remaining (T = NCF60 min): without NADPH regenerating system; for Remaining (T = 60 min) / Remaining (T = NCF60 min): 60 min
Experimental: (§1) Buffers: PBK Buffer: 50 mM potassium phosphate buffer (PPB), pH 7.2, with 3.3 mM Magnesium Chloride.
(§2) TA Intermediate solution: Compound or control (3 μL) diluted from stock solution (10 mM) with 297 μL 90.0% methanol/water. (Conc: 100 μM; 1.0% DMSO, 89.1% MeOH).
(§3) Control cocktail intermediate solution: Each control (3 μL) was diluted with 291 μL 90.0% methanol/water.
(§4) Diluted TA intermediate stock solution and PC control stock were made by transferring 80 μL of 100 μM TA stock solution into new tubes and then adding 720 μL of 1.0% DMSO in 50 mM potassium phosphate buffer (conc. 10 μM; 1.0% DMSO, 8.91% MeOH).
(§5) Preparation of Liver microsomes working solution (1.25×)(final Conc.: 0.5 mg/mL).
(§6) Acetonitrile:methanol (9:1, v/v)(including 200 ng/mL tolbutamide and 200 ng/ml labetalol hydrochloride as internal standards).
(§7) Working solution: Intermediate solution (80 μL) was diluted with 720 μL 1.0% DMSO in 50 mM potassium phosphate buffer (Conc.: 10 μM; 1.0% DMSO, 8.91% MeOH)
(§8) Procedure: Stock solution was added to each of the time point plates. Microsomes solution (360 μL/well), TA/PC (45 μL/well), and NADPH (45 μL/well) min. (Conc: 1.0 μM, 0.10% DMSO, 0.891% MeOH) were added to the incubation plates. To the T60 and NCF60 plate, TA (15 ul/well) and Microsomes (120 ul) were added. To the blank plate, microsome (50 ul/well) with stop solution (150 ul/well) were added. At the end of each time point, 50 ul/well was aliquoted from the incubation plate. The sampling plates were shaken for approximately 10 min. on a shaker and the samples were centrifuged at 4000 rpm for 15 min. Supernatant (120 μL) was transferred for LC/MS/MS.Compounds from Table 3 were incubated at 37° C. with liver microsomes (pooled from multiple donors) at 1 μM in the presence of a NADPH regenerating system at 0.5 mg/ml microsomal protein. Positive controls included testosterone (3A4 substrate), propafenone (2D6) and diclofenac (2C9), which were incubated with microsomes in the presence of an NADPH regenerating system. At time points (0, 5, 10, 20, 30 and 60 minutes), samples were removed and immediately mixed with cold acetonitrile containing the internal standard (IS). Test compounds incubated with microsomes without the NADPH regenerating system for 60 min are also included. A single point for each test condition (n=1) was obtained, and samples were analyzed by LC/MS/MS. Disappearance of the test compound was assessed based on peak area ratios of analyte/IS (no standard curve).

[2] = test system: S6K1 (Thr389) phosphorylation (mTORC1 activity) in wild-type (WT) 293T cells; experiment: Inhibition of S6K1 (Thr389) phosphorylation in wild-type 293T cells (ELISA); format: cell-based, human; conditions: for IC50: Homo sapiens, HEK-293T, 2 h, wild-type 293T cells, 2 hours treatment; for fold lower potency compared with RAD001 (by IC50) / extent of inhibition of S6K1 (Thr389) phosphorylation: wild-type cells; for extent of inhibition of S6K1 (Thr389) phosphorylation: with increasing concentrations
Experimental: (§9) Treatment of wild-type (WT) and FKBP12 knock-out 293T cells with RAD001 (everolimus) and test compounds. WT and FKBP12 knock-out 293T cells were cultured in Dulbecco's modified Eagle's medium (Gibco #11971-025) supplemented with 10% fetal bovine serum (Gibco #26140-079). Cells were plated at a density of 15,000 cells per well in poly-D-Lysine coated 96-well plates (Corning, #354461) and were incubated at 37° C., 5% CO2 for 24 hours until they reached ˜80% confluence. Cells were treated with RAD001 or test compounds reconstituted in dimethyl sulfoxide (DMSO) using a 8-11-point dose range, from 0.001 pM to 10 μM. All treatments were performed in duplicates for 2 hours at 37° C. Cell culture media supplemented with blank dimethyl sulfoxide (DMSO) was used as a negative control for all compounds. Phosphorylated amounts of S6K1 (Thr389) were measured using an ELISA kit (Invitrogen 85-86052-11), following the manufacture's protocol.
(§10) S6K1 is an immediate downstream target of mTORC1 and therefore phosphorylation of S6K1 at Thr389 residue is used to measure mTORC1 activity (PMID: 16968213). Amounts of phosphorylated S6K1 (Thr389) were measured in WT and FKBP12 knock-out 293T cells treated with either RAD001 or Compound 44 (FIGS. 1A and 1B), and Compound 45 (FIGS. 1C and 1D).

[3] = test system: S6K1 (Thr389) phosphorylation (mTORC1 activity) in FKBP12 knock-out 293T cells; experiment: Inhibition of S6K1 (Thr389) phosphorylation in FKBP12 knock-out 293T cells (ELISA); format: cell-based, human; conditions: for inhibition at 10 µM: Homo sapiens, HEK-293T, 10 μM (highest tested concentration); for selectivity for FKBP12 compared with RAD001 (in words): wild-type versus FKBP12 knock-out cells
Description: Example Generation of FKBP 12 knock-out cells. A CRISPR/Cas9 system was used to deliver ribonucleoprotein complexes containing guide RNA sequences that target FKBP12 (ac[…], location 1369062; ccactactcac[…], location 1369181) in HEK293T cells using Lipofectamine CRISPRMAX transfection reagent (Invitrogen CMAX00008). Cell clones were screened by immunoblotting with anti-FKBP-specific antibody (Novus, NB300-508). Single cells that were deficient for FKBP12 protein were selected and cloned.
as §9, §10

[4] = In vitro microsomal metabolic stability, human liver microsomes; format: in vitro ADME; conditions: for Remaining (T = 60 min) / Remaining (T = NCF60 min) / half-life at 1 µM: Human liver microsomes; for Remaining (T = 60 min): with NADPH; for Remaining (T = NCF60 min): without NADPH regenerating system; for Remaining (T = 60 min) / Remaining (T = NCF60 min): 60 min; for CLint scaled at 1 µM / microsomal CLint at 1 µM: human, human liver microsomes; for CLint scaled at 1 µM / microsomal CLint at 1 µM / half-life at 1 µM: pH 7.2; for half-life at 1 µM: 0.5 mg/ml protein, NADPH
Experimental: as §1, §2, §3, §4, §5, §6, §7, §8

[5] = CD-1, mouse, mouse liver microsomes, pH 7.2

| CLint scaled at 1 µM [1, 5] [mL/min/kg] | microsomal CLint at 1 µM [1, 5] [µL/min/mg] | half-life at 1 µM [1] [min] | Remaining (T = 60 min) [1] [%] | Remaining (T = NCF60 min) [1] [%] | Remaining (T = 60 min) [4] [%] | Remaining (T = NCF60 min) [4] [%] | CLint scaled at 1 µM [4] [mL/min/kg] | microsomal CLint at 1 µM [4] [µL/min/mg] | half-life at 1 µM [4] [min] | SMILES | IC50 [2] [nM] | fold lower potency compared with RAD001 (by IC50) [2] [fold] | extent of inhibition of S6K1 (Thr389) phosphorylation [2] | inhibition of S6K1 (Thr389) phosphorylation in the absence of FKBP12 (in words) ([3]; FKBP12 knock-out cells) | fold less potent compared with RAD001 ([3]; FKBP12 knock-out cells, at similar level of inhibition) [fold] | inhibition at 10 µM ([3]; FKBP12 knock-out cells) [%] | selectivity for FKBP12 compared with RAD001 (in words) [3] |
| --- | --- | --- | --- | --- | --- | --- | --- | --- | --- | --- | --- | --- | --- | --- | --- | --- | --- |
| 162 | 41 | 33.8 | 31 | 96 | 7.50 | 99 | 71.7 | 79.6 | 17.4 | COc1cccc(NC2C[C@@H]3CC[C@@H](C)[C@@](O)(O3)C(=O)C(=O)N3CCCCC3C(=O)O[C@H]([C@H](C)C[C@@H]3CC[C@@H](O)[C@H](OC)C3)CC[C@H](C)/C=C(\C)[C@@H](O)[C@@H](OC)C(=O)[C@H](C)C[C@H](C)/C=C/C=C/C=C/2C)c1 (stereo partly drawn) [Compound 44, (3S,6S,7E,9R,10R,12R,14S,15E,17E,19E,23S,26R,27R,34aS)-9,27-dihydroxy-3-((R)-1-((1S,3R,4R)-4-hydroxy-3-methoxycyclohexyl)propan-2-yl)-10-methoxy-21-((3-methoxyphenyl)amino)-6,8,12,14,20,26-hexamethyl-5,6,9,10,12,13,14,21,22,23,24,25,26,27,32,33,34,34a-octadecahydro-3H-23,27-epoxypyrido[2,1-c][1]oxa[4]azacyclohentriacontine-1,11,28,29(4H,31H)-tetraone] | 11 | ~17 | completely inhibit | did not inhibit S6K1 phosphorylation at any tested concentration lower than 10 μM | ~100 | ~30 | relatively more selective for FKBP12 compared to RAD001 |
| – | < 9.6 | > 145 | 101 | 150 | 32 | 107 | 37.8 | 42.1 | 33 | CO[C@@H]1C[C@H](C[C@@H](C)[C@@H]2CC[C@H](C)/C=C(\C)[C@@H](O)[C@@H](OC)C(=O)[C@H](C)C[C@H](C)/C=C/C=C/C=C(\C)C(Nc3ccc(Cl)cc3)C[C@@H]3CC[C@@H](C)[C@@](O)(O3)C(=O)C(=O)N3CCCCC3C(=O)O2)CC[C@H]1O (stereo partly drawn) [Compound 48, (3S,6S,7E,9R,10R,12R,14S,15E,17E,19E,23S,26R,27R,34aS)-21-((4-chlorophenyl)amino)-9,27-dihydroxy-3-((R)-1-((1S,3R,4R)-4-hydroxy-3-methoxycyclohexyl)propan-2-yl)-10-methoxy-6,8,12,14,20,26-hexamethyl-5,6,9,10,12,13,14,21,22,23,24,25,26,27,32,33,34,34a-octadecahydro-3H-23,27-epoxypyrido[2,1-c][1]oxa[4]azacyclohentriacontine-1,11,28,29(4H,31H)-tetraone] | 9.8 | 30 | near complete inhibition | did not inhibit S6K1 (Thr389)phosphorylation at any tested concentrations | – | – | relatively more selective to FKBP12 compared with RAD001 |
| – | – | – | – | – | – | – | – | – | – | CO[C@@H]1C[C@H](C[C@@H](C)[C@@H]2CC[C@H](C)/C=C(\C)[C@@H](O)[C@@H](OC)C(=O)[C@H](C)C[C@H](C)/C=C/C=C/C=C(\C)C(NS(=O)(=O)c3ccccc3)C[C@@H]3CC[C@@H](C)[C@@](O)(O3)C(=O)C(=O)N3CCCC[C@H]3C(=O)O2)CC[C@H]1O (stereo partly drawn) [Compound 16] | – | ~28 | complete inhibition | comparable to that of RAD001 | – | ~70 | – |
| – | – | – | – | – | – | – | – | – | – | CO[C@@H]1C[C@H](C[C@@H](C)[C@@H]2CC[C@H](C)/C=C(\C)[C@@H](O)[C@@H](OC)C(=O)[C@H](C)C[C@H](C)/C=C/C=C/C=C(\C)C(Nc3cccc(C#N)c3)C[C@@H]3CC[C@@H](C)[C@@](O)(O3)C(=O)C(=O)N3CCCCC3C(=O)O2)CC[C@H]1O (stereo partly drawn) [Compound 57, 3-(((3S,6S,7E,9R,10R,12R,14S,15E,17E,19E,23S,26R,27R,34aS)-9,27-dihydroxy-3-((R)-1-((1S,3R,4R)-4-hydroxy-3-methoxycyclohexyl)propan-2-yl)-10-methoxy-6,8,12,14,20,26-hexamethyl-1,11,28,29-tetraoxo-1,4,5,6,9,10,11,12,13,14,21,22,23,24,25,26,27,28,29,31,32,33,34,34a-tetracosahydro-3H-23,27-epoxypyrido[2,1-c][1]oxa[4]azacyclohentriacontin-21-yl)amino)benzonitrile] | 3.68 | 44 | near complete inhibition | inhibited the mTORC1 signaling in a dose dependent manner | – | – | relatively not FKBP12 selective |
| – | – | – | – | – | – | – | – | – | – | CO[C@@H]1C[C@H](C[C@@H](C)[C@@H]2CC[C@H](C)/C=C(\C)[C@@H](O)[C@@H](OC)C(=O)[C@H](C)C[C@H](C)/C=C/C=C/C=C(\C)C(N(C)c3ccccc3)C[C@@H]3CC[C@@H](C)[C@@](O)(O3)C(=O)C(=O)N3CCCCC3C(=O)O2)CC[C@H]1O (stereo partly drawn) [Compound 63, (3S,6S,7E,9R,10R,12R,14S,15E,17E,19E,23S,26R,27R,34aS)-9,27-dihydroxy-3-((R)-1-((1S,3R,4R)-4-hydroxy-3-methoxycyclohexyl)propan-2-yl)-10-methoxy-6,8,12,14,20,26-hexamethyl-21-(methyl(phenyl)amino)-5,6,9,10,12,13,14,21,22,23,24,25,26,27,32,33,34,34a-octadecahydro-3H-23,27-epoxypyrido[2,1-c][1]oxa[4]azacyclohentriacontine-1,11,28,29(4H,31H)-tetraone] | 2.43 | 10 | near complete inhibition | – | – | 17 | more selective than RAD001 |
